Experiments:
human PTH1R = human PTH1R (Homo sapiens (Human), UniProt Q03431); assay: In vitro cAMP signal activity via the human PTH1R (HKRK-B7 cells); assay type: cell-based; details: 100 nM human PTH(1-34) = 100%; for EC20: concentration giving 20% cAMP signaling activity; for EC50: concentration giving 50% cAMP signaling activity
Description: Measurement of In Vitro cAMP Signal Activity of Compounds Via the Human PTH1R
Human PTH(1-34) and calcitonin were purchased from Peptide Institute, Inc. (Osaka, Japan), dissolved in 10 mM acetic acid to 1 mM and stored in a −80° C. freezer.
Cells were cultured in Dulbecco's modified Eagle's medium (DMEM) supplemented with 10% fetal bovine serum (Hyclone), 100 units/ml penicillin G and 100 μg/ml streptomycin sulfate (Invitrogen Corp) at 37° C. in a humidified atmosphere containing 5% CO2.
cAMP signal transduction analysis utilized LLC-PK1 cells not expressing the PTH1R, and HKRK-B7 cells, that is, LLC-PK1 cells overexpressing the human PTH1R at 9.5×10^5 receptors/cell (Takasu et al., J. Bone. Miner. Res. 14:11-20, 1999).
HKRK-B7 or LLC-PK1 cells were seeded into a 96-well plate at 1×10^5 cells/well and incubated overnight. On the following day, 50 μl of cAMP assay buffer (DMEM, 2 mM IBMX, 0.2 mg/ml bovine serum albumin, 35 mM Hepes-NaOH, pH 7.4) containing human PTH(1-34) or each compound was added and the plate was placed in a 37° C. incubator. The cells were incubated for 20 minutes. After removing the medium, the cells were washed with 100 μl of cAMP assay buffer once. The plate was placed on dry ice powder to freeze the cells and then removed from the dry ice. The cells were lysed with 40 μl of 50 mM HCl and frozen again on dry ice. The amount of intracellular cAMP produced was measured using a commercially available cAMP EIA kit (Biotrack cAMP EIA system, GE health care).
Analyses were performed using a variable gradient S-shaped dose-response curve equation.

rat PTH1R = rat PTH1R (Rattus norvegicus (Rat), UniProt P25961); assay: In vitro cAMP signaling activity via the rat PTH1R (LLC-PK46_RATO_PTH1R cells); assay type: cell-based; details: LLC-PK46_RATO_PTH1R cells overexpressing rat PTH1R; for EC20: 20% cAMP signaling activity; for EC50: 50% cAMP signaling activity
Sequence of rat PTH1R (P25961 27-591): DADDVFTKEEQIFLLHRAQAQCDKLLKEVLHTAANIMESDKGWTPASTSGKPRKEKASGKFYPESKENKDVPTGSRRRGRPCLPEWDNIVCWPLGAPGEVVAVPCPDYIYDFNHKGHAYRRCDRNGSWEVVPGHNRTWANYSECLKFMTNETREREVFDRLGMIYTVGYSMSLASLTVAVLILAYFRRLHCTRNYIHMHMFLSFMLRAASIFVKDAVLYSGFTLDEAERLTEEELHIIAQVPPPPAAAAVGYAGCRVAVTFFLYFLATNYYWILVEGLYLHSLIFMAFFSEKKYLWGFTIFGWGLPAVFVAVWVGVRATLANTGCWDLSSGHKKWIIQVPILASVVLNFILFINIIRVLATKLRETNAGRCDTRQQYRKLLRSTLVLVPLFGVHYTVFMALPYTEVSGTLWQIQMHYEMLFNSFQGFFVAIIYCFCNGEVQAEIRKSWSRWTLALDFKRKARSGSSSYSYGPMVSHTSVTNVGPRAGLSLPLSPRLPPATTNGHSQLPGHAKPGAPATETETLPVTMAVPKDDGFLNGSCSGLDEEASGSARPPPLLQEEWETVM
From the text: Measurement of the Compounds' In Vitro cAMP Signaling Activity Via the Rat PTH1R
Instead of HKRK-B7 cells, LLC-PK46_RATO_PTH1R cells overexpressing rat PTH1R, which were established at Chugai Pharmaceutical, were used to take measurements in a similar manner to Test Example 1.

[1] = Metabolic stability using human liver microsomes; assay type: in vitro ADME; details: pH 7.4; human liver microsomes 0.5 mg/mL, compound 1 μM, NADPH 1 mM, 37° C.; read-out: Clearance
Description: Examination of Metabolic Stability Using Human Liver Microsomes
In 0.1 M phosphate buffer (pH7.4), human liver microsomes were incubated with a compound or a comparative example in the coexistence of NADPH at 37° C. for a specified amount of time. The concentration of the parent compound at each reaction time was measured using LC/MS/MS, and inherent clearance (μL/min/mg protein) was calculated from the slope of the reaction time versus residual rate.
(§1) Compound concentration: 1 μM
Reaction time: 0, 5, 15, and 30 minutes

[2] = Metabolic stability using rat hepatocyte; assay type: in vitro ADME; details: for hepatocyte CLint at 1 μM: rat (SD, female) hepatocytes 1×10^6 cells/mL, compound 1 μM, 37° C., read-out: Clearance; for rat hepatocyte metabolic stability compared to Comparative Examples 1, 2, 3, 5, and 6: rat hepatocytes
Description: Examination of Metabolic Stability Using Rat Hepatocyte
Liver cells were prepared from the liver of rats (SD, female) by a collagenase perfusion method. A compound of the Examples or a Comparative Example was added, and this was incubated at 37° C. for a specified amount of time, followed by addition of a reaction-stopping solution. The concentration of the parent compound at each reaction time was measured using LC/MS/MS, and inherent clearance (μL/10^6 cells/min) was calculated from the slope of the reaction time versus residual rate.
Cell concentration: 1×10^6 cells/mL
as §1
Medium: Williams' medium E
Reaction-stopping solution: acetonitrile/2-propanol (4/6, v/v)

TPTX rat model = assay: Calcemic action in the TPTX rat model; assay type: in vivo; details: TPTX rats, oral 30 mg/kg; for change of serum Ca concentration from the Pre-value: up to 24 hours after administration; for significance of serum Ca change compared to Comparative Examples 1 and 2: p<0.05
Description: Calcemic Action in the TPTX Rat Model
Four-week old female Crl:CD(SD) rats were obtained from Charles River Japan (Atsugi Breeding Center), and were acclimated to standard laboratory conditions of 20-26° C. and 35-75% humidity for one week. The rats were given tap water and were fed ad libitum with standard rodent chow (CE-2) (CLEA Japan, Inc.) containing 1.1% calcium, 1.0% phosphoric acid, and 250 IU/100 g of vitamin D3.
TPTX was performed on five-week old rats. Some of the individuals were subjected to sham operation (Sham). Individuals whose serum Ca concentration was less than 8 mg/dL on four days after the operation were selected for use as TPTX rats. On five days after the operation, the rats were assigned to eight TPTX groups and one Sham group (n=5, each group) based on their body weight and serum Ca concentration measured on four days after the operation. The solvent alone was orally administered to the Sham group and the TPTX-Vehicle group at a volume of 10 mL/kg. Each test article was orally administered individually to each TPTX test article group by dissolving it in a solvent at a dose of 30 mg/10 mL/kg. The solvent composition was 10% dimethylsulfoxide (Wako Pure Chemical Industries, Ltd.), 10% Cremophor EL (Sigma-Aldrich Japan LLC), 20% hydroxypropyl-β-cyclodextrin (Nihon Shokuhin Kako Co., Ltd.), glycine (Wako Pure Chemical Industries, Ltd.); and the pH was adjusted to 10. Immediately before administration of each sample, Pre-blood collection was performed, and blood collection was carried out at 2, 6, 10, and 24 hours after administration to measure the serum Ca concentration. Each blood collection was carried out from the jugular vein under isoflurane inhalation anesthesia.
Serum Ca measurement: Serum obtained by centrifugation from the collected blood was measured by using an automatic analyzer TBA-120FR (Toshiba Medical Systems Corporation).
For statistical analysis of the animal studies, data are shown as mean±standard error (SE). Statistical analysis were performed by unpaired test of the SAS Preclinical Package (Ver. 5.00.010720, SAS Institute Japan, Tokyo, Japan).

Sequence of human PTH1R (Q03431 27-593): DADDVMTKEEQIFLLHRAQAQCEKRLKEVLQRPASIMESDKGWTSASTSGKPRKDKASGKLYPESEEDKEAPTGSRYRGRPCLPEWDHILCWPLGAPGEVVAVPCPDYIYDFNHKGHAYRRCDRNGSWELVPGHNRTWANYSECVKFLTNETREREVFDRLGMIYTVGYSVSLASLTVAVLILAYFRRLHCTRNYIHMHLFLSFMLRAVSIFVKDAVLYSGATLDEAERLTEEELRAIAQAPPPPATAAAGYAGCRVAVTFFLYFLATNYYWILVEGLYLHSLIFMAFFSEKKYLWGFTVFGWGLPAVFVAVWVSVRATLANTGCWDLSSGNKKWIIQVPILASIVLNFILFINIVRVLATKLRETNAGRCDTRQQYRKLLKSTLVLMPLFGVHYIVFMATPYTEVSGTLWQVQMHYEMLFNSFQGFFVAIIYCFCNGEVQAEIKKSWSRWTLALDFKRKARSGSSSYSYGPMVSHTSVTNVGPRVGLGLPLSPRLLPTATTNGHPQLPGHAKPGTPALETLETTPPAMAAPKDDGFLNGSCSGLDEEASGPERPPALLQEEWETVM

In the case of Cc1cc(N2C(=O)CNC2=O)ccc1CCS(=O)(=O)N1CCC2(CC1)N=C(c1cccc(OC(F)(F)F)c1)NC2=O [Comparative Example 1, reference compound], the EC20 (human PTH1R) is reported as 1.5 µM, the EC50 (human PTH1R) is reported as 4.8 µM and the EC20 (rat PTH1R) is reported as 0.8 µM. The EC50 (rat PTH1R) was 2.3 µM, the microsomal CLint at 1 μM [1] was 84 µL/min/mg and the hepatocyte CLint at 1 μM [2] was 5.8 µL/min/1e6 cells. The “achievement of therapeutic target range of serum Ca concentration of 7.6 to 8.8 mg/dL” value (“achievement” for short) (TPTX rat model) was “could not be achieved” and the “change of serum Ca concentration from the Pre-value” (“change of serum Ca concentration” for short) (TPTX rat model) was “smaller positive changes from the Pre-value”.
Cc1cc(N2C(=O)NC(=O)C23CC3)cc(C)c1CCS(=O)(=O)N1CCC2(CC1)N=C(c1ccc(OC(F)(F)F)cc1)NC2=O [Compound 11, 4-(3,5-dimethyl-4-(2-((4-oxo-2-(4-(trifluoromethoxy)phenyl)-1,3,8-triazaspiro[4.5]deca-1-en-8-yl)sulfonyl)ethyl)phenyl)-4,6-diazaspiro[2.4]heptane-5,7-dione] gave an EC20 (human PTH1R) of 1.5 µM, an EC50 (human PTH1R) of 11 µM and an EC20 (rat PTH1R) of 0.8 µM. The EC50 (rat PTH1R) was 3.2 µM, the microsomal CLint at 1 μM [1] was 19 µL/min/mg and the “rat hepatocyte metabolic stability compared to Comparative Examples 1, 2, 3, 5, and 6” value [2] was “increased”.
Work on Cc1cc(N2C(=O)NC(=O)C2(C)C)cc(C)c1CCS(=O)(=O)N1CCC2(CC1)N=C(c1ccc(OC(F)(F)F)cc1)NC2=O [Compound 7, 1-(3,5-dimethyl-4-(2-((4-oxo-2-(4-(trifluoromethoxy)phenyl)-1,3,8-triazaspiro[4.5]deca-1-en-8-yl)sulfonyl)ethyl)phenyl)-5,5-dimethylimidazolidine-2,4-dione] yielded an EC20 (human PTH1R) of 1.1 µM, an EC50 (human PTH1R) of 4.1 µM and an EC20 (rat PTH1R) of 0.5 µM. The EC50 (rat PTH1R) was 2.4 µM, the microsomal CLint at 1 μM [1] was 30 µL/min/mg and the hepatocyte CLint at 1 μM [2] was 0.9 µL/min/1e6 cells. For the same molecule, the “rat hepatocyte metabolic stability compared to Comparative Examples 1, 2, 3, 5, and 6” value [2] was “increased”, the “achievement” value (TPTX rat model) was “achieved the therapeutic target range” and the “change of serum Ca concentration” value (TPTX rat model) was “large positive changes from the Pre-value”. For the same molecule, the “significance of serum Ca change compared to Comparative Examples 1 and 2” value (TPTX rat model) was “statistically significant”.
Cc1cc(N2C(=O)NC(=O)C23CCCC3)cc(C)c1CCS(=O)(=O)N1CCC2(CC1)N=C(c1ccc(OC(F)(F)F)cc1)NC2=O [Compound 8, 1-(3,5-dimethyl-4-(2-((4-oxo-2-(4-(trifluoromethoxy)phenyl)-1,3,8-triazaspiro[4.5]deca-1-en-8-yl)sulfonyl)ethyl)phenyl)-1,3-diazaspiro[4.4]nonane-2,4-dione] showed an EC20 (rat PTH1R) of 0.4 µM, an EC50 (rat PTH1R) of 1.9 µM and a microsomal CLint at 1 μM [1] of 35 µL/min/mg. The hepatocyte CLint at 1 μM [2] was 3 µL/min/1e6 cells, the “rat hepatocyte metabolic stability compared to Comparative Examples 1, 2, 3, 5, and 6” value [2] was “increased” and the “achievement” value (TPTX rat model) was “achieved the therapeutic target range”. For the same molecule, the “change of serum Ca concentration” value (TPTX rat model) was “large positive changes from the Pre-value” and the “significance of serum Ca change compared to Comparative Examples 1 and 2” value (TPTX rat model) was “statistically significant”.
In the case of Cc1cc(N2C(=O)NC(=O)C23COC3)cc(C)c1CCS(=O)(=O)N1CCC2(CC1)N=C(c1ccc(OC(F)(F)F)cc1)NC2=O [Compound 10, 5-(3,5-dimethyl-4-(2-((4-oxo-2-(4-(trifluoromethoxy)phenyl)-1,3,8-triazaspiro[4.5]deca-1-en-8-yl)sulfonyl)ethyl)phenyl)-2-oxa-5,7-diazaspiro[3.4]octane-6,8-dione], the EC20 (human PTH1R) is reported as 5.0 µM, the EC50 (human PTH1R) is reported as 21 µM and the EC20 (rat PTH1R) is reported as 3.0 µM. For the same molecule, the EC50 (rat PTH1R) was 12 µM, the microsomal CLint at 1 μM [1] was 29 µL/min/mg and the hepatocyte CLint at 1 μM [2] was 0.3 µL/min/1e6 cells. For the same molecule, the “rat hepatocyte metabolic stability compared to Comparative Examples 1, 2, 3, 5, and 6” value [2] was “increased”.
Work on Cc1cc(N2C(=O)NC(=O)C2(C)C)cc(C)c1CCS(=O)(=O)N1CCC2(CC1)N=C(c1ccc(F)c(OC(F)(F)F)c1)NC2=O [Compound 1, 1-(4-(2-((2-(4-fluoro-3-(trifluoromethoxy)phenyl)-4-oxo-1,3,8-triazaspiro[4.5]deca-1-en-8-yl)sulfonyl)ethyl)-3,5-dimethylphenyl)-5,5-dimethylimidazolidine-2,4-dione] yielded an EC20 (human PTH1R) of 1.3 µM, an EC50 (human PTH1R) of 5.8 µM and a microsomal CLint at 1 μM [1] of 21 µL/min/mg. The hepatocyte CLint at 1 μM [2] was 7.6 µL/min/1e6 cells, the “achievement” value (TPTX rat model) was “could not be achieved” and the “change of serum Ca concentration” value (TPTX rat model) was “smaller positive changes from the Pre-value”.

— patent US9428505B2, “Hydantoin derivative” (Chugai Seiyaku Kabushiki Kaisha, priority 2012, dated 2016)
